Results on 13 molecules are retold here after patent US4485117A, “Antiprotozoal compounds” (priority 1981, dated 1984).

One series is described as follows: in vivo. Particulars: rat, rats, oral, read-out: acute oral LD50. Here is the method:
The acute oral LD50 's of compounds of formula (I) in rats were determined by standard techniques.

The target in another series is cyclo oxygenase. As to the kind of experiment: Enzyme assay, inhibition of cyclo oxygenase. It is filed as biochemical, rabbit. As to conditions: in vitro.
A further series deals with lipoxygenase. Description: Enzyme assay, inhibition of lipoxygenase. It counts as biochemical, rabbit. As to conditions: in vitro.
The subject of a further series is rat eye. As to the kind of experiment: Anti-inflammatory activity in the rat eye (bacterial endotoxin induced). Particulars: assessed at 24 and 48 hours. It is filed as in vivo. Here is the method: The anti-inflammatory activity in the rat eye was determined, following both oral and topical administration, of 2-(4-t-butylcyclohexyl)-3-hydroxy-1,4-naphthoquinone. The inflammatory response for the test employed developed following injection of gram-negative bacterial endotoxin into the rat foodpad (Rosenbaum et. al Nature 286, 611-613 (1980)).
Vasodilation was assessed at 24 and 48 hours using a slit lamp, the rats then killed and the aqueous humour aspirated for determination of protein concentrations and total leucocyte numbers. The results are shown below as ED50.

The next series has as its system Plasmodium falciparum. As to the kind of experiment: Inhibitory effect on Plasmodium falciparum in culture (G-3H-hypoxanthine uptake). It is filed as cell-based. As to conditions: for IC50: P. falciparum culture, 36 hours, read-out: ED50 (the source's name). Here is the method:
Compounds of the following formula, including compounds of formula (I), were examined for their inhibitory effect on Plasmodium falciparum. [drawing 11]
The test method was a modification of that described by Desjardins et al., Antimicrob. Agents and Chemotherapy,1979,16,710-718. Compounds were dissolved in ethanol at a concentration of 1000 mg/L and dilutions down to 1 mg/L were made. The drug solutions were serially diluted using RPMI 1640 medium+10% human plasma in microtitration plates. Parasitised and fresh red blood cells were added together with G^3 H-hypoxanthine, in RPMI 1640 medium+10% human plasma and the cultures incubated for 36 hours. Cultures were then harvested, the particulate contents collected on a glass-fibre filter paper and washed copiously with water. The filter papers were dried and the radioactivity measured using a scintillation counter. Infected untreated and uninfected untreated cultures were included as controls. Percent inhibition was correlated with dose to provide an ED50.

Another series relates to E. tenella. Description: In vitro activity against E. tenella in cell cultures. It counts as cell-based. As to conditions: Eimeria tenella, 96 hours, read-out: MIC (minimum inhibitory concentration). Here is the method:
Compounds tested in Example 5 were assessed for their activity against E. tenella. In the method employed cell cultures were infected with sporozoite suspensions of E. tenella immediately after addition of the compounds. […] After incubation for 96 hours the cultures were fixed and the cells were stained with 0.1% toluidine blue. The stained cultures were examined microscopically for presence of parasites.

The test system of a further series is Eimeria tenella. As to the kind of experiment: In vivo anticoccidiosis screen in chicks, E. tenella. Also on record: species or system Eimeria tenella; male Ross Ranger chicks. Particulars: 6 days, fifth day of infection, groups of 5. Here is the method: (§1) Compounds tested in Example 7(a) were examined in an in vivo anticoccidiosis screen.
(§2) The compounds were administered to groups of 5 male Ross Ranger chicks (7 days old), at various dosages in the diet, for 6 days. The chicks were each infected with Eimeria tenella and E. acervulina one day after the beginning of the medication. The number of birds cleared of E. tenella lesions was noted on the fifth day of infection as was the presence or absence of E. acervulina oocysts in the droppings. The results are shown in Table 3, in which the numbers refer to the number of birds cleared of E. tenella and the letters indicate the presence or absence of E. acervulina /A=absent; P=present; M=95% clearance in comparision with untreated controls/.

For a further series, the system named is E. acervulina. Description: In vivo anticoccidiosis screen in chicks, E. acervulina. The arrangement: species or system Eimeria acervulina; male Ross Ranger chicks; key: A: absent; P: present; M: 95% clearance in comparision with untreated controls. As to conditions: 6 days, fifth day of infection. Here is the method:
as §1, §2

The test system of another series is malaria. Particulars: background art; cited from earlier work.

In brackets after ≈: the same amount, converted by molar mass. Where two headings read alike, the source gives them in different places.

By LD50 is commonly meant the dose expected to kill half of the subjects tested. For orientation: ED50 means the dose that gives a 50% effect, or the effect in half of the subjects.

`CC(C)(C)C1CCC(C2=C(O)C(=O)c3ccccc3C2=O)CC1` (stereo not shown) [2-(4'-t-butylcyclohexyl)-3-hydroxy-1,4-naphthoquinone]: the LD50 in “in vivo” was above 1000 mg/kg. Moreover, the IC50 at cyclo oxygenase amounted to 58000 nM; against lipoxygenase it was 23000 nM. The ED50 in the series on rat eye (Rattus norvegicus, oral) was in the range of 5 to 25 mg/kg. Further, the “ED50, anti-inflammatory activity in the rat eye” value in the series with rat eye (topical) is 10-20 ug/eye.
On to `CCC(C)(C)C1CCC(C2=C(O)C(=O)c3ccccc3C2=O)CC1` (stereo not shown) [2-hydroxy-3-(4'-t-pentylcyclohexyl)-1,4-naphthoquinone], for which the IC50 against cyclo oxygenase came to 63000 nM; on lipoxygenase it was 29000 nM.
Regarding `CC(C)(C)C1CCCC(C2=C(O)C(=O)c3ccccc3C2=O)C1` (stereo not drawn) [3'-t-Butyl (80% trans), reference compound], in the series with Plasmodium falciparum (Plasmodium falciparum, 36 h), the IC50 turned out to be 300 nM. For the same molecule, the MIC in the series with E. tenella came to 4 µM (≈ 1.25 µg/mL).
With `O=C1C(O)=C([C@H]2CC[C@H](C3CCCCC3)CC2)C(=O)c2ccccc21` [4'-Cyclohexyl (100% trans), reference compound], the IC50 with Plasmodium falciparum (Plasmodium falciparum, 36 h) worked out at 4.05 nM. In the series with E. tenella, the MIC was determined as 0.092 µM (≈ 0.0311 µg/mL). In addition, the “number of birds cleared of E. tenella lesions” value (shortened to “number”) was 1/5 in the series with Eimeria tenella (50 ppm in diet), 5/5 in the series on Eimeria tenella (100 ppm in diet) and 5/5 with Eimeria tenella (200 ppm in diet). Moreover, the “presence or absence of E. acervulina oocysts in the droppings” value (from here on “presence or absence”) with E. acervulina (50 ppm in diet) was “P”; in the series with E. acervulina (100 ppm in diet) it was “P”; in the series on E. acervulina (200 ppm in diet), “A”.
As for `C[C@H]1CC[C@H](C2=C(O)C(=O)c3ccccc3C2=O)CC1` [4'-Methyl (100% trans), reference compound], the IC50 with Plasmodium falciparum (Plasmodium falciparum, 36 h) worked out at 9.2 nM. In addition, the MIC with E. tenella turned out to be 0.46 µM (≈ 0.124 µg/mL).
In the case of `CC(C)(C)C1CCC(C2=C(O)C(=O)c3ccccc3C2=O)CC1` (stereo not drawn) [4'-t-Butyl (50% trans), 2-(4'-t-butylcyclohexyl)-3-hydroxy-1,4-naphthoquinone], in the series on Plasmodium falciparum (2160 min), the IC50 was 0.599 nM.
Still for that read-out and setting: the figure for `CC(C)(C)C1CCC(C2=C(O)C(=O)c3ccccc3C2=O)CC1` (stereo not drawn) [4'-t-Butyl (75% trans), 2-(4'-t-butylcyclohexyl)-3-hydroxy-1,4-naphthoquinone] is 0.0563 nM.
In the case of `CC(C)(C)C1CCC(C2=C(O)C(=O)c3ccccc3C2=O)CC1` (stereo not drawn) [4'-t-Butyl (80% trans), 2-(4'-t-butylcyclohexyl)-3-hydroxy-1,4-naphthoquinone], the IC50 in the series with Plasmodium falciparum (2160 min) was determined as 0.0375 nM. Further, the MIC with E. tenella stood at 0.01 µM (≈ 0.00312 µg/mL). Moreover, the “number” value in the series on Eimeria tenella (50 ppm in diet) is reported as 0/5; with Eimeria tenella (100 ppm in diet), 5/5. For the same molecule, the “presence or absence” value with E. acervulina (50 ppm in diet) is on record as “P”; with E. acervulina (100 ppm in diet), “A”.
As to `CC(C)(C)[C@H]1CC[C@@H](C2=C(O)C(=O)c3ccccc3C2=O)CC1` [4'-t-Butyl (100% cis), 2-(cis-4'-t-butylcyclohexyl)-3-hydroxy-1,4-naphthoquinone], the IC50 with Plasmodium falciparum (Plasmodium falciparum, 36 h) is 1.08 nM. Further, the MIC in the series on E. tenella was 0.025 µM (≈ 0.00781 µg/mL).
On to `CC(C)(C)[C@H]1CC[C@H](C2=C(O)C(=O)c3ccccc3C2=O)CC1` [4'-t-Butyl (100% trans), 2-(trans-4'-t-butylcyclohexyl)-3-hydroxy-1,4-naphthoquinone], for which, in the series with Plasmodium falciparum (Plasmodium falciparum, 36 h), the IC50 was found to be 0.0571 nM.
Consider `CCC(C)(C)C1CCC(C2=C(O)C(=O)c3ccccc3C2=O)CC1` (stereo not drawn) [4'-t-Pentyl (50% trans), 2-hydroxy-3-(4'-t-pentylcyclohexyl)-1,4-naphthoquinone], for which the MIC with E. tenella was 0.0096 µM (≈ 0.00313 µg/mL).
In the case of `CCC(C)(C)C1CCC(C2=C(O)C(=O)c3ccccc3C2=O)CC1` (stereo not drawn) [4'-t-Pentyl (60% trans), 2-hydroxy-3-(4'-t-pentylcyclohexyl)1,4-naphthoquinone], the IC50 with Plasmodium falciparum (Plasmodium falciparum, 36 h) is 0.06 nM. The “number” value in the series on Eimeria tenella (50 ppm in diet) is given as 4/5; in the series with Eimeria tenella (100 ppm in diet) it was 5/5; in the series with Eimeria tenella (200 ppm in diet), 5/5. In addition, the “presence or absence” value in the series with E. acervulina (50 ppm in diet) was “M (95% clearance in comparision with untreated controls)”; with E. acervulina (100 ppm in diet), “A”; with E. acervulina (200 ppm in diet) it was “A”.
For `O=C1C(O)=C(CCCCCCCCC2CCCCC2)C(=O)c2ccccc21` [Menoctone, 2-(8-cyclohexyloctyl)-3-hydroxy-1,4-naphthoquinone, reference compound], the ED50 with Plasmodium falciparum (36 h) is recorded as 2.55×10^-7. In addition, the “activity in man (in words)” value with malaria was “poor activity in man”.
